Measurements taken from US20140051679A1, “KINASE INHIBITORS AND METHOD OF TREATING CANCER WITH SAME” (UNIVERISTY HEALTH NETWORKS, priority 2011, published 2014).

Experiments:
human TTK = target: T1, human TTK (Homo sapiens, UniProt P33981); test: TTK inhibition assay (indirect ELISA); type: biochemical; conditions: GST-TTK 0.68 nM, 16 μM ATP; read-out: IC50 Ranges TTK
T1 construct: amino terminal GST fusion of full length human TTK; purchased Invitrogen
T1 sequence (P33981 1-857): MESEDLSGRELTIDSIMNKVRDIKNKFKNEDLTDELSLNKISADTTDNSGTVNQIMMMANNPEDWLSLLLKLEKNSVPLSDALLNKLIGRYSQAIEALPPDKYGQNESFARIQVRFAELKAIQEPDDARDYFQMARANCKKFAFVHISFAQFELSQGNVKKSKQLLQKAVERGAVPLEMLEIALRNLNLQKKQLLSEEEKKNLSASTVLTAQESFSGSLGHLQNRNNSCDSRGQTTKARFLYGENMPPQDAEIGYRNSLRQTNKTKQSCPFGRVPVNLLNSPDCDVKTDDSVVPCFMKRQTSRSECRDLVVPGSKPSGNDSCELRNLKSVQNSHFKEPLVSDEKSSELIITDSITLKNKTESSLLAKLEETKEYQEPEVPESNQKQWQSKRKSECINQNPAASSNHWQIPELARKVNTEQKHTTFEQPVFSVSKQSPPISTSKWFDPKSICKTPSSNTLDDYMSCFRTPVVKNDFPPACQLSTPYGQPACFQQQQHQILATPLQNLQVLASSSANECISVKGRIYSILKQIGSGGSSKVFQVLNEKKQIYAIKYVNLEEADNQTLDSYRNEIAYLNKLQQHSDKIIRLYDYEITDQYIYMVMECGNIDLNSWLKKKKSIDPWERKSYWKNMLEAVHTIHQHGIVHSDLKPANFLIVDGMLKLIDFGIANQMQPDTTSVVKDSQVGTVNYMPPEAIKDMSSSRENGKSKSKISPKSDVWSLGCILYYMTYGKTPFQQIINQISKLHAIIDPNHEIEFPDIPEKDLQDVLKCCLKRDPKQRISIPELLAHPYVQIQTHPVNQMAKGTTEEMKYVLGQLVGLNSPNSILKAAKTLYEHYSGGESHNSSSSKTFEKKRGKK

[1] = system: MDA-MB-231 breast cancer cells; test: Cell growth inhibition, Sulforhodamine B assay, MDA-MB-231; type: cell-based; conditions: Homo sapiens, 120 h, 5 days culture, SRB assay, read-out: Cell Line GI50 Range MDA-MB-231
[2] = system: MDA-MB-468 breast cancer cells; test: Cell growth inhibition, Sulforhodamine B assay, MDA-MB-468; type: cell-based; conditions: Homo sapiens, 120 h, 5 days culture, SRB assay, read-out: Cell Line GI50 Range MDA-MB-468
human PLK4 = target: T2, human PLK4 (Homo sapiens, UniProt O00444); test: PLK4 inhibition assay (indirect ELISA); type: biochemical; conditions: GST-PLK4 4 nM, 15 μM ATP; read-out: IC50 Ranges PLK4
T2 construct: amino terminal GST fusion of residues 1-391 of human PLK4; made in house; host or cells: E. coli
T2 sequence (O00444 1-391): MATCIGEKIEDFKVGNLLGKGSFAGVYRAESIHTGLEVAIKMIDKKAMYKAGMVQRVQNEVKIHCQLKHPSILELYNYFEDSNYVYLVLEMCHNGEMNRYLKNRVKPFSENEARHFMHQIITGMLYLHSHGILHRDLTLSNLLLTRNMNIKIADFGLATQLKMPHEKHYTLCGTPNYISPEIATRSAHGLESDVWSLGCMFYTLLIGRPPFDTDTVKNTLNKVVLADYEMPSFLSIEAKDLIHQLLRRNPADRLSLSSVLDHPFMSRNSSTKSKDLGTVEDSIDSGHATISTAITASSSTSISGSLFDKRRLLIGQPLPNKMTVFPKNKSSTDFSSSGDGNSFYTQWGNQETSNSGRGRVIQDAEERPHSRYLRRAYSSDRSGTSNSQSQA
Method in brief: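 Dephosphorylated GST-tagged human PLK4 (residues 1-391, E. coli), 4 nM, preincubated 15 min with compound, then reacted 30 min with 15 μM ATP on MBP-coated plates (50 mM HEPES pH 7.5, 10 mM MgCl2, 0.01% Brij 35). Phospho-MBP detected by antibody ELISA at 450 nm. Tested at 10 μM or 10-point titrations; IC50 from 4-parameter logistic fit.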

[3] = system: HCT116 colon cancer cells; test: Cell growth inhibition, Sulforhodamine B assay, HCT116; type: cell-based; conditions: Homo sapiens, HCT-116, 120 h, 5 days culture, SRB assay, read-out: Cell Line GI50 Range HCT116
HT29 colon cancer cells = test: Cell growth inhibition, Sulforhodamine B assay, HT29; type: cell-based; conditions: Homo sapiens, HT-29, 120 h, 5 days culture, SRB assay, read-out: Cell Line GI50 Range HT29
[4] = system: OVCAR-3 ovarian cancer cells; test: Cell growth inhibition, Sulforhodamine B assay, OVCAR-3; type: cell-based; conditions: Homo sapiens, 120 h, 5 days culture, SRB assay, read-out: Cell Line GI50 Range OVCAR-3

SMILES	IC50 (human TTK)	GI50 [1]	GI50 [2]	IC50 (human PLK4)	GI50 [3]	GI50 (HT29 colon cancer cells)	GI50 [4]
CN1CCC(Oc2ccc(-c3n[nH]c4ccc(NC(=O)Nc5ccccc5Cl)cc34)cc2)CC1 [Example A62, 1-(2-chlorophenyl)-3-(3-(4-((1-methylpiperidin-4-yl)oxy)phenyl)-1H-indazol-5-yl)urea]	≤ 5 µM	≤ 5 µM	≤ 5 µM	≤ 5 µM	≤ 5 µM	≤ 5 µM	≤ 5 µM
C[C@H](NC(=O)c1ccc2[nH]nc(-c3ccc(N4CCOCC4)cc3)c2c1)C1CCCCC1 [Example A40, (S)—N-(1-cyclohexylethyl)-3-(4-morpholinophenyl)-1H-indazole-5-carboxamide]	≤ 5 µM	≤ 5 µM	≤ 5 µM	≤ 5 µM	≤ 5 µM	≤ 5 µM	≤ 5 µM
CN1CCC(Oc2ccc(-c3n[nH]c4ccc(C(=O)N[C@@H]5CCCc6ccccc65)cc34)cc2)CC1 [Example A26, (R)-3-(4-((1-methylpiperidin-4-yl)oxy)phenyl)-N-(1,2,3,4-tetrahydronaphthalen-1-yl)-1H-indazole-5-carboxamide]	≤ 5 µM	≤ 5 µM	≤ 5 µM	≤ 5 µM	≤ 5 µM	≤ 5 µM	≤ 5 µM
O=C(NC(c1ccccc1)C1CC1)c1ccc2[nH]nc(-c3cccc(N4CCOCC4)c3)c2c1 (stereo not drawn) [Example A61, N-(cyclopropyl(phenyl)methyl)-3-(3-morpholinophenyl)-1H-indazole-5-carboxamide]	≤ 5 µM	5 to 20 µM	5 to 20 µM	≤ 5 µM	≤ 5 µM	≤ 5 µM	5 to 20 µM
C[C@@H](NC(=O)c1ccc2[nH]nc(-c3ccc(N4CCOCC4)cc3)c2c1)C1CCCCC1 [Example A48, (R)—N-(1-cyclohexylethyl)-3-(4-morpholinophenyl)-1H-indazole-5-carboxamide]	≤ 5 µM	≤ 5 µM	≤ 5 µM	≤ 5 µM	≤ 5 µM	≤ 5 µM	5 to 20 µM
C[C@@H](NC(=O)c1ccc2[nH]nc(-c3ccc(N4CCOCC4)cc3)c2c1)c1cccs1 [Example A53, (R)-3-(4-morpholinophenyl)-N-(1-(thiophen-2-yl)ethyl)-1H-indazole-5-carboxamide]	≤ 5 µM	≤ 5 µM	≤ 5 µM	≤ 5 µM	≤ 5 µM	≤ 5 µM	5 to 20 µM
CN1CCC(Oc2ccc(-c3n[nH]c4ccc(NC(=O)Nc5ccccc5F)cc34)cc2)CC1 [Example A56, 1-(2-fluorophenyl)-3-(3-(4-((1-methylpiperidin-4-yl)oxy)phenyl)-1H-indazol-5-yl)urea]	≤ 5 µM	≤ 5 µM	≤ 5 µM	≤ 5 µM	≤ 5 µM	≤ 5 µM	5 to 20 µM
O=C(Nc1ccc2[nH]nc(-c3ccc(N4CCOCC4)c(F)c3)c2c1)C(c1ccsc1)N1CCCC1 (stereo not drawn) [Example A60, N-(3-(3-fluoro-4-morpholinophenyl)-1H-indazol-5-yl)-2-(pyrrolidin-1-yl)-2-(thiophen-3-yl)acetamide]	≤ 5 µM	≤ 5 µM	≤ 5 µM	≤ 5 µM	≤ 5 µM	≤ 5 µM	5 to 20 µM

The remaining lines, values ahead:

IC50 (human TTK)	GI50 [1]	GI50 [2]	IC50 (human PLK4)	GI50 [3]	GI50 (HT29 colon cancer cells)	GI50 [4]	SMILES
≤ 5 µM	5 to 20 µM	5 to 20 µM	≤ 5 µM	≤ 5 µM	≤ 5 µM	20 to 50 µM	Cc1cc(-c2n[nH]c3ccc(C(=O)NC(c4ccccc4)C4CC4)cc23)ccc1N1CCOCC1 (stereo not drawn) [Example A64, N-(cyclopropyl(phenyl)methyl)-3-(3-methyl-4-morpholinophenyl)-1H-indazole-5-carboxamide]
≤ 5 µM	≤ 5 µM	≤ 5 µM	≤ 5 µM	≤ 5 µM	≤ 5 µM	5 to 20 µM	CN1CCN(Cc2ccc(-c3n[nH]c4ccc(NC(=O)C(c5ccsc5)N5CCCC5)cc34)cc2)CC1 (stereo not drawn) [Example A67, N-(3-(4-((4-methylpiperazin-1-yl)methyl)phenyl)-1H-indazol-5-yl)-2-(pyrrolidin-1-yl)-2-(thiophen-3-yl)acetamide]
≤ 5 µM	5 to 20 µM	5 to 20 µM	≤ 5 µM	≤ 5 µM	≤ 5 µM	5 to 20 µM	O=C(Nc1ccc2[nH]nc(-c3ccc(N4CCOCC4)cc3)c2c1)Nc1ccccc1Cl [Example A66, 1-(2-chlorophenyl)-3-(3-(4-morpholinophenyl)-1H-indazol-5-yl)urea]
≤ 5 µM	≤ 5 µM	≤ 5 µM	≤ 5 µM	≤ 5 µM	≤ 5 µM	5 to 20 µM	O=C(NC(c1ccccc1)C1CC1)c1ccc2[nH]nc(-c3ccc(N4CCOCC4)c(F)c3)c2c1 (stereo not drawn) [Example A65, N-(cyclopropyl(phenyl)methyl)-3-(3-fluoro-4-morpholinophenyl)-1H-indazole-5-carboxamide]
≤ 5 µM	5 to 20 µM	≤ 5 µM	≤ 5 µM	≤ 5 µM	≤ 5 µM	5 to 20 µM	CN1CCC(Oc2ccc(-c3n[nH]c4ccc(C(=O)NCC(c5ccsc5)N5CCOCC5)cc34)cc2)CC1 (stereo not drawn) [Example A75, 3-(4-((1-methylpiperidin-4-yl)oxy)phenyl)-N-(2-morpholino-2-(thiophen-3-yl)ethyl)-1H-indazole-5-carboxamide]
≤ 5 µM	≤ 5 µM	≤ 5 µM	≤ 5 µM	≤ 5 µM	≤ 5 µM	5 to 20 µM	CN1CCC(Oc2ccc(-c3n[nH]c4ccc(NC(=O)N5CCCc6ccccc65)cc34)cc2)CC1 [Example A73, N-(3-(4-((1-methylpiperidin-4-yl)oxy)phenyl)-1H-indazol-5-yl)-3,4-dihydroquinoline-1(2H)-carboxamide]
≤ 5 µM	≤ 5 µM	≤ 5 µM	≤ 5 µM	≤ 5 µM	≤ 5 µM	≤ 5 µM	O=C(Nc1ccc2[nH]nc(-c3ccc(NC4CCCCC4)cc3)c2c1)C(c1ccsc1)N1CCCC1 (stereo not drawn) [Example A68, N-(3-(4-(cyclohexylamino)phenyl)-1H-indazol-5-yl)-2-(pyrrolidin-1-yl)-2-(thiophen-3-yl)acetamide]
